Data taken from the supplement of paper PMC11919725.

Assays:
Jurkat [1] = assay: metabolic activity relative to DMSO, 18 h (ratio); higher = more viable
Summary of the method: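 Naive or CD3/CD28 Dynabead-activated (48 h) primary CD4+/CD8+ T cells, or Jurkat cells, received compound at 1 nM–10 µM for 18 h. Readout used alamarBlue at 10% v/v final, with fluorescence taken after 3.5 h. Metabolic activity is given relative to mean vehicle control values.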

Jurkat [2] = assay: cytotoxicity relative to DMSO, 18 h (ratio); higher = less cell death (drugs called cytotoxic fall below 1)
Summary of the method: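 Jurkat cells or primary CD4+/CD8+ T cells, either naive or activated for 48 h with CD3/CD28 Dynabeads, were exposed to compound from 1 nM to 10 µM in log10 steps for 18 h at 37 °C, 5% CO2. Aliquots of 100 µl of suspension were then moved to 96-well plates containing IncuCyte Cytotox Dye at 250 nM final. Cytotoxicity was read by IncuCyte fluorescence imaging, with signals corrected for confluency and normalised to the mean of control wells.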

Jurkat [3] = assay: confluency relative to DMSO, 18 h (ratio); higher = more viable
Summary of the method: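 Naive or CD3/CD28 Dynabead-activated (48 h) primary CD4+/CD8+ T cells, or Jurkat cells, received compound at 1 nM–10 µM for 18 h at 37 °C. Confluency was measured by IncuCyte phase-contrast imaging with the Basic Analyzer and normalised to the mean of the control wells. Imaging used 100 µl of suspension per well in 96-well plates with IncuCyte Cytotox Dye and alamarBlue, at ×10 with five images per well every hour for 3 h.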

Compound | metabolic activity (Jurkat [1]; 1 nM) | metabolic activity (Jurkat [1]; 10 nM) | metabolic activity (Jurkat [1]; 100 nM) | metabolic activity (Jurkat [1]; 1000 nM) | metabolic activity (Jurkat [1]; 10000 nM) | cytotoxicity (Jurkat [2]; 1 nM) | cytotoxicity (Jurkat [2]; 10 nM) | cytotoxicity (Jurkat [2]; 100 nM) | cytotoxicity (Jurkat [2]; 1000 nM) | cytotoxicity (Jurkat [2]; 10000 nM) | confluency (Jurkat [3]; 1 nM) | confluency (Jurkat [3]; 10 nM) | confluency (Jurkat [3]; 100 nM) | confluency (Jurkat [3]; 1000 nM) | confluency (Jurkat [3]; 10000 nM)
CN(C)CC(=O)Nc1ccc2[nH]c(=O)c3ccccc3c2c1 [PJ34] | 0.99 | 1.03 | 1.04 | 0.955 | 1.12 | 0.966 | 0.947 | 0.963 | 0.932 | 1.17 | 0.971 | 0.933 | 0.94 | 0.99 | 0.968
CC(=O)OC1C(=O)C2(C)C(O)CC3OCC3(OC(C)=O)C2C(OC(=O)c2ccccc2)C2(O)CC(OC(=O)C(O)C(NC(=O)c3ccccc3)c3ccccc3)C(C)=C1C2(C)C (stereo not given) [Paclitaxel] | 1.05 | 0.568 | 0.576 | 0.534 | 0.744 | 1.16 | 0.953 | 0.883 | 0.854 | 0.797 | 1 | 0.989 | 0.964 | 0.939 | 0.81
CC(=O)c1c(C)c2cnc(Nc3ccc(N4CCNCC4)cn3)nc2n(C2CCCC2)c1=O [Palbociclib] | 0.877 | 0.988 | 0.96 | 0.995 | 0.88 | 0.851 | 0.93 | 0.95 | 1.03 | 0.793 | 0.829 | 0.902 | 0.974 | 1.04 | 0.813
Nc1nc2[nH]cc(CCc3ccc(C(=O)NC(CCC(=O)O)C(=O)O)cc3)c2c(=O)[nH]1 (stereo not given) [Pemetrexed] | 1.02 | 1.11 | 1.06 | 1.09 | 0.853 | 0.992 | 0.997 | 0.837 | 0.821 | 0.75 | 1 | 0.962 | 0.845 | 0.839 | 0.835
CC(=O)N1CCC(Nc2cc(C(=O)NCC(O)CN3CCc4ccccc4C3)ncn2)CC1 (stereo not given) [Pemrametostat] | 0.952 | 0.904 | 0.931 | 0.95 | 1.2 | 1.07 | 1.09 | 1.06 | 1.05 | 1.05 | 1.05 | 1.06 | 1.01 | 1.03 | 0.947
COc1ccc(Cl)c(Nc2nc3ccccc3nc2NS(=O)(=O)c2cccc(NC(=O)C(C)(C)N)c2)c1 [Pilaralisib] | 1.02 | 1.03 | 1.03 | 0.939 | 0.877 | 1.06 | 1.11 | 1.1 | 0.959 | 0.942 | 0.978 | 1.01 | 1.01 | 0.994 | 0.976
CC(C)N(CC1OC(n2cnc3c(N)ncnc32)C(O)C1O)C1CC(CCc2nc3ccc(C(C)(C)C)cc3[nH]2)C1 (stereo not given) [Pinometostat] | 0.998 | 1.05 | 1.12 | 0.858 | 0.958 | 0.982 | 1.06 | 1.25 | 1.01 | 1 | 0.929 | 0.934 | 1.11 | 1.02 | 0.941
Nc1cccc2c1C(=O)N(C1CCC(=O)NC1=O)C2=O (stereo not given) [Pomalidomide] | 0.995 | 1.01 | 1.04 | 1.12 | 1.09 | 1.04 | 0.986 | 0.512 | 1.03 | 0.936 | 0.955 | 0.902 | 0.943 | 0.948 | 0.94
CC12C=CC(=O)C=C1CCC1C2C(=O)CC2(C)C1CCC2(O)C(=O)CO (stereo not given) [Prednisone] | 0.872 | 0.991 | 1.07 | 1.04 | 1.15 | 0.964 | 1.01 | 1.02 | 1.05 | 1.21 | 1.01 | 0.981 | 0.993 | 1.01 | 1.02
Cn1cc(CNCC2CCN(c3ncc(C(=O)NO)cn3)CC2)c2ccccc21 [Quisinostat] | 0.876 | 1.04 | 0.875 | 0.688 | 0.667 | 0.816 | 1.07 | 0.897 | 0.958 | 0.908 | 0.847 | 0.918 | 0.963 | 1.02 | 0.957
COc1ccc(F)c(F)c1C(=O)c1cnc(NC2CCN(S(C)(=O)=O)CC2)nc1N [R-547] | 1.09 | 1.02 | 1 | 0.739 | 0.134 | 1.01 | 0.934 | 1.08 | 1.04 | 1.04 | 1.07 | 1.18 | 1.04 | 1.04 | 1.01
COC1CC2CCC(C)C(O)(O2)C(=O)C(=O)N2CCCCC2C(=O)OC(C(C)CC2CCC(O)C(OC)C2)CC(=O)C(C)C=C(C)C(O)C(OC)C(=O)C(C)CC(C)C=CC=CC=C1C (stereo not given) [Rapamycin] | 0.859 | 0.948 | 0.789 | 0.77 | 0.742 | 0.973 | 1.02 | 1.05 | 0.913 | 0.831 | 1.01 | 0.98 | 0.933 | 0.902 | 0.81
Cn1nccc1Nc1nccc(-c2ccn(C(CO)c3ccc(Cl)c(F)c3)c(=O)c2)n1 (stereo not given) [Ravoxertinib] | 0.977 | 0.997 | 1.04 | 1.07 | 1.1 | 1.1 | 0.921 | 1 | 0.983 | 1.02 | 0.989 | 0.841 | 0.884 | 0.894 | 0.886
CN(C)C(=O)c1cc2cnc(Nc3ccc(N4CCNCC4)cn3)nc2n1C1CCCC1 [Ribociclib] | 0.887 | 0.874 | 0.862 | 0.879 | 0.856 | 0.914 | 0.883 | 1.01 | 0.984 | 1.06 | 1 | 0.964 | 1.09 | 1.06 | 1.14
O=C(CCCCCCNC(=O)c1cnc(N(c2ccccc2)c2ccccc2)nc1)NO [Ricolinostat] | 0.874 | 0.881 | 0.933 | 0.841 | 0.655 | 1.01 | 0.933 | 1.07 | 0.969 | 0.881 | 1.01 | 1 | 1.03 | 0.976 | 0.984
COc1cc(OC)c(C=CS(=O)(=O)Cc2ccc(OC)c(NCC(=O)O)c2)c(OC)c1 [Rigosertib] | 1.01 | 1.01 | 0.87 | 0.426 | 0.468 | 0.92 | 0.988 | 0.948 | 0.711 | 0.621 | 1.02 | 1.01 | 1.01 | 0.871 | 0.797
CN1CCC(c2c(O)cc(O)c3c(=O)cc(-c4ccccc4Cl)oc23)C1CO (stereo not given) [Riviciclib] | 1.04 | 0.872 | 0.754 | 0.6 | 0.242 | 0.627 | 0.605 | 1 | 0.783 | 1.04 | 1.07 | 1.04 | 0.985 | 0.866 | 1.03
CC=C1NC(=O)C2CSSCCC=CC(CC(=O)NC(C(C)C)C(=O)N2)OC(=O)C(C(C)C)NC1=O (stereo not given) [Romidepsin] | 1.1 | 0.839 | 0.703 | 0.539 | 0.042 | 0.904 | 0.961 | 0.914 | 1.03 | 1.06 | 0.987 | 1.07 | 1.02 | 1 | 1.03
CNCc1ccc(-c2[nH]c3cc(F)cc4c3c2CCNC4=O)cc1 [Rucaparib] | 0.926 | 0.952 | 0.981 | 0.996 | 0.973 | 1.06 | 1 | 1.04 | 1.07 | 0.899 | 1.06 | 1.03 | 1.04 | 1.07 | 0.931
CC(C)(C)c1cnc(CSc2cnc(NC(=O)C3CCNCC3)s2)o1 [SNS-032] | 0.778 | 0.953 | 0.979 | 0.192 | 0.167 | 1.06 | 1.06 | 1.06 | 0.66 | 0.657 | 1.13 | 1.09 | 1.08 | 1.13 | 1.17
O=C(Nc1cccc(Cl)c1)Nc1ncc(CCNc2ncnc3ccsc23)s1 [SNS-314] | 0.955 | 0.945 | 0.979 | 0.909 | 0.797 | 0.951 | 0.912 | 0.92 | 0.832 | 0.733 | 0.951 | 0.963 | 0.974 | 0.907 | 0.78
Cc1nc(-c2cccnc2)sc1C(=O)Nc1ccccc1-c1cn2c(CN3CCOCC3)csc2n1 [SRT2104] | 1.03 | 1.01 | 1.03 | 1.03 | 0.982 | 1.13 | 1.06 | 1.13 | 1.11 | 1.05 | 1.06 | 1.02 | 1.05 | 1.04 | 0.971
CCC(CO)Nc1nc(NCc2ccccc2)c2ncn(C(C)C)c2n1 (stereo not given) [Seliciclib] | 0.994 | 0.987 | 0.945 | 0.962 | 1.03 | 1.02 | 0.922 | 0.883 | 0.948 | 0.957 | 1.03 | 0.968 | 0.924 | 0.977 | 0.943
